# Test results as given in patent US10550111B2, “Pyrimidine urea compound containing isoxazolines and use thereof” (SHENYANG SINOCHEM AGROCHEMICALS R&D CO., LTD, priority 2014, dated 2020).
# Experiments:
# Format in all cases: in vivo
# [1] = tested on: Zinnia elegans Jacq.; assay: Bioassay of herbicidal activity in greenhouse (further screening)
# Summary of the method: (§1)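 Pre- and post-emergence greenhouse test. Track sprayer, 500 L/hm^2, 1.95 kg/cm^2; EC formulation. Post-em at 2–3 leaves (grass), 2–4 leaves (broad-leaf). Readout: visual % inhibition.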
# [2] = tested on: Echinochloa crus-galli (L.) Beauv.; assay: as above
# Summary of the method: as §1
# [3] = tested on: Abutilon theophrasti Medic.; assay: as above
# Summary of the method: as §1
# [4] = tested on: Setaria glauca (L.) Beauv.; assay: as above
# Summary of the method: as §1
# [5] = tested on: broad-leaf weeds and grass weeds; assay: General screening of herbicidal activity in greenhouse; conditions: 1000 g a.i./hm^2;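 further: 0 means no visible effect and 100 means all weeds dead or not emerged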
# Summary of the method: as §1
structure (smiles),measurement,setting,value
CC(C)OC(=O)C1(C)CC(c2cc(-n3c(=O)cc(C(F)(F)F)n(C)c3=O)c(F)cc2Cl)=NO1 (stereo not shown) [Compound 10],"Growth inhibition rate, Post-emergence treatment, Zinnia elegans Jacq.",[1]; dose 7.5 g a.i./hm^2,100%
same,"Growth inhibition rate, Post-emergence treatment, Zinnia elegans Jacq.",[1]; dose 15 g a.i./hm^2,100%
same,"Growth inhibition rate, Post-emergence treatment, Zinnia elegans Jacq.",[1]; dose 30.0 g a.i./hm^2,100%
same,"Growth inhibition rate, Post-emergence treatment, Zinnia elegans Jacq.",[1]; dose 60.0 g a.i./hm^2,100%
same,"Growth inhibition rate, Post-emergence treatment, Zinnia elegans Jacq.",[1]; dose 120.0 g a.i./hm^2,100%
same,"Growth inhibition rate, Post-emergence treatment, Echinochloa crus-galli (L.) Beauv.",[2]; dose 7.5 g a.i./hm^2,90%
same,"Growth inhibition rate, Post-emergence treatment, Echinochloa crus-galli (L.) Beauv.",[2]; dose 15 g a.i./hm^2,98%
same,"Growth inhibition rate, Post-emergence treatment, Echinochloa crus-galli (L.) Beauv.",[2]; dose 30.0 g a.i./hm^2,100%
same,"Growth inhibition rate, Post-emergence treatment, Echinochloa crus-galli (L.) Beauv.",[2]; dose 60.0 g a.i./hm^2,100%
same,"Growth inhibition rate, Post-emergence treatment, Echinochloa crus-galli (L.) Beauv.",[2]; dose 120.0 g a.i./hm^2,100%
same,"Growth inhibition rate, Post-emergence treatment, Abutilon theophrasti Medic.",[3]; dose 7.5 g a.i./hm^2,100%
same,"Growth inhibition rate, Post-emergence treatment, Abutilon theophrasti Medic.",[3]; dose 15 g a.i./hm^2,100%
same,"Growth inhibition rate, Post-emergence treatment, Abutilon theophrasti Medic.",[3]; dose 30.0 g a.i./hm^2,100%
same,"Growth inhibition rate, Post-emergence treatment, Abutilon theophrasti Medic.",[3]; dose 60.0 g a.i./hm^2,100%
same,"Growth inhibition rate, Post-emergence treatment, Abutilon theophrasti Medic.",[3]; dose 120.0 g a.i./hm^2,100%
same,"Growth inhibition rate, Post-emergence treatment, Setaria glauca (L.) Beauv.",[4]; dose 7.5 g a.i./hm^2,90%
same,"Growth inhibition rate, Post-emergence treatment, Setaria glauca (L.) Beauv.",[4]; dose 15 g a.i./hm^2,100%
same,"Growth inhibition rate, Post-emergence treatment, Setaria glauca (L.) Beauv.",[4]; dose 30.0 g a.i./hm^2,100%
same,"Growth inhibition rate, Post-emergence treatment, Setaria glauca (L.) Beauv.",[4]; dose 60.0 g a.i./hm^2,100%
same,"Growth inhibition rate, Post-emergence treatment, Setaria glauca (L.) Beauv.",[4]; dose 120.0 g a.i./hm^2,100%
same,pre-emergence and post-emergence herbicidal activity against broad-leaf weeds and grass weeds,[5],good
C#CCOC(=O)C1(C)CC(c2cc(-n3c(=O)cc(C(F)(F)F)n(C)c3=O)ccc2Cl)=NO1 (stereo not shown) [Compound 290],"Growth inhibition rate, Post-emergence treatment, Zinnia elegans Jacq.",[1]; dose 37.5 g a.i./hm^2,75%
same,"Growth inhibition rate, Post-emergence treatment, Zinnia elegans Jacq.",[1]; dose 150 g a.i./hm^2,100%
same,"Growth inhibition rate, Post-emergence treatment, Zinnia elegans Jacq.",[1]; dose 600 g a.i./hm^2,100%
same,"Growth inhibition rate, Pre-emergence treatment, Zinnia elegans Jacq.",[1]; dose 37.5 g a.i./hm^2,0%
same,"Growth inhibition rate, Pre-emergence treatment, Zinnia elegans Jacq.",[1]; dose 150 g a.i./hm^2,0%
same,"Growth inhibition rate, Pre-emergence treatment, Zinnia elegans Jacq.",[1]; dose 600 g a.i./hm^2,20%
same,"Growth inhibition rate, Post-emergence treatment, Echinochloa crus-galli (L.) Beauv.",[2]; dose 37.5 g a.i./hm^2,25%
same,"Growth inhibition rate, Post-emergence treatment, Echinochloa crus-galli (L.) Beauv.",[2]; dose 150 g a.i./hm^2,65%
same,"Growth inhibition rate, Post-emergence treatment, Echinochloa crus-galli (L.) Beauv.",[2]; dose 600 g a.i./hm^2,70%
same,"Growth inhibition rate, Pre-emergence treatment, Echinochloa crus-galli (L.) Beauv.",[2]; dose 37.5 g a.i./hm^2,0%
same,"Growth inhibition rate, Pre-emergence treatment, Echinochloa crus-galli (L.) Beauv.",[2]; dose 150 g a.i./hm^2,0%
same,"Growth inhibition rate, Pre-emergence treatment, Echinochloa crus-galli (L.) Beauv.",[2]; dose 600 g a.i./hm^2,20%
same,"Growth inhibition rate, Post-emergence treatment, Abutilon theophrasti Medic.",[3]; dose 37.5 g a.i./hm^2,85%
same,"Growth inhibition rate, Post-emergence treatment, Abutilon theophrasti Medic.",[3]; dose 150 g a.i./hm^2,98%
same,"Growth inhibition rate, Post-emergence treatment, Abutilon theophrasti Medic.",[3]; dose 600 g a.i./hm^2,100%
same,"Growth inhibition rate, Pre-emergence treatment, Abutilon theophrasti Medic.",[3]; dose 37.5 g a.i./hm^2,10%
same,"Growth inhibition rate, Pre-emergence treatment, Abutilon theophrasti Medic.",[3]; dose 150 g a.i./hm^2,35%
same,"Growth inhibition rate, Pre-emergence treatment, Abutilon theophrasti Medic.",[3]; dose 600 g a.i./hm^2,60%
same,"Growth inhibition rate, Post-emergence treatment, Setaria glauca (L.) Beauv.",[4]; dose 37.5 g a.i./hm^2,40%
same,"Growth inhibition rate, Post-emergence treatment, Setaria glauca (L.) Beauv.",[4]; dose 150 g a.i./hm^2,75%
same,"Growth inhibition rate, Post-emergence treatment, Setaria glauca (L.) Beauv.",[4]; dose 600 g a.i./hm^2,85%
same,"Growth inhibition rate, Pre-emergence treatment, Setaria glauca (L.) Beauv.",[4]; dose 37.5 g a.i./hm^2,0%
same,"Growth inhibition rate, Pre-emergence treatment, Setaria glauca (L.) Beauv.",[4]; dose 150 g a.i./hm^2,10%
same,"Growth inhibition rate, Pre-emergence treatment, Setaria glauca (L.) Beauv.",[4]; dose 600 g a.i./hm^2,25%
same,pre-emergence and post-emergence herbicidal activity against broad-leaf weeds and grass weeds,[5],good
CCCOC(=O)C1(C)CC(c2cc(-n3c(=O)cc(C(F)(F)F)n(C)c3=O)c(F)cc2Cl)=NO1 (stereo not shown) [Compound 7],"Growth inhibition rate, Post-emergence treatment, Zinnia elegans Jacq.",[1]; dose 7.5 g a.i./hm^2,55%
same,"Growth inhibition rate, Post-emergence treatment, Zinnia elegans Jacq.",[1]; dose 15 g a.i./hm^2,60%
same,"Growth inhibition rate, Post-emergence treatment, Zinnia elegans Jacq.",[1]; dose 30.0 g a.i./hm^2,75%
same,"Growth inhibition rate, Post-emergence treatment, Zinnia elegans Jacq.",[1]; dose 60.0 g a.i./hm^2,98%
same,"Growth inhibition rate, Post-emergence treatment, Zinnia elegans Jacq.",[1]; dose 120.0 g a.i./hm^2,100%
same,"Growth inhibition rate, Post-emergence treatment, Echinochloa crus-galli (L.) Beauv.",[2]; dose 7.5 g a.i./hm^2,25%
same,"Growth inhibition rate, Post-emergence treatment, Echinochloa crus-galli (L.) Beauv.",[2]; dose 15 g a.i./hm^2,90%
same,"Growth inhibition rate, Post-emergence treatment, Echinochloa crus-galli (L.) Beauv.",[2]; dose 30.0 g a.i./hm^2,98%
same,"Growth inhibition rate, Post-emergence treatment, Echinochloa crus-galli (L.) Beauv.",[2]; dose 60.0 g a.i./hm^2,100%
same,"Growth inhibition rate, Post-emergence treatment, Echinochloa crus-galli (L.) Beauv.",[2]; dose 120.0 g a.i./hm^2,100%
same,"Growth inhibition rate, Post-emergence treatment, Abutilon theophrasti Medic.",[3]; dose 7.5 g a.i./hm^2,75%
same,"Growth inhibition rate, Post-emergence treatment, Abutilon theophrasti Medic.",[3]; dose 15 g a.i./hm^2,98%
same,"Growth inhibition rate, Post-emergence treatment, Abutilon theophrasti Medic.",[3]; dose 30.0 g a.i./hm^2,100%
same,"Growth inhibition rate, Post-emergence treatment, Abutilon theophrasti Medic.",[3]; dose 60.0 g a.i./hm^2,100%
same,"Growth inhibition rate, Post-emergence treatment, Abutilon theophrasti Medic.",[3]; dose 120.0 g a.i./hm^2,100%
same,"Growth inhibition rate, Post-emergence treatment, Setaria glauca (L.) Beauv.",[4]; dose 7.5 g a.i./hm^2,55%
same,"Growth inhibition rate, Post-emergence treatment, Setaria glauca (L.) Beauv.",[4]; dose 15 g a.i./hm^2,90%
same,"Growth inhibition rate, Post-emergence treatment, Setaria glauca (L.) Beauv.",[4]; dose 30.0 g a.i./hm^2,90%
same,"Growth inhibition rate, Post-emergence treatment, Setaria glauca (L.) Beauv.",[4]; dose 60.0 g a.i./hm^2,100%
same,"Growth inhibition rate, Post-emergence treatment, Setaria glauca (L.) Beauv.",[4]; dose 120.0 g a.i./hm^2,100%
same,pre-emergence and post-emergence herbicidal activity against broad-leaf weeds and grass weeds,[5],good
